“Also recorded” adds a separate entry of the source. Ends that are not written are not given here.

Assay [1] has as its system SARS-CoV-2 S protein pseudotyped virus-like particles. It counts as cell-based.
A further assay deals with SARS-CoV-2 RBD (RBD-Fc) (Severe acute respiratory syndrome coronavirus 2, UniProt P0DTC2).
Assay [2] deals with SARS-CoV-2 strain 2019 n-CoV/USA_WA1/2020. The format is cell-based.
For assay [3], the system named is B.1.1.529 (Omicron) S protein RBD. It counts as binding, SARS-CoV-2.

Consider “p16 (DFDFAENWMEQLKVML; not fully specified)”, for which, in assay [1], the “neutralization potency compared to parent IgG (in words)” value is on record as “marked improvement in neutralization potency”. In addition, the “binding of peptide-phage to RBD (in words)” value (“binding of peptide-phage” below) with SARS-CoV-2 RBD (RBD-Fc) is listed as “no measurable interaction”. For the same substance, the “improvement in 15033 neutralization efficiency (in words)” value in assay [2] is on record as “most marked improvement”.

Regarding “p96 (TAYECFQFPEWSCESE; not fully specified; cysteine pairing not given here)”, the “binding of peptide-phage” value with SARS-CoV-2 RBD (RBD-Fc) is “no measurable interaction”. For the same substance, the “potency compared to 15033 parental (in words)” value in assay [2] was “no apparent improvement in potency; also recorded: decreased potency”.

Turning to “p102 (ECWEWSYQLQEWSPCP; not fully specified; cysteine pairing not given here)”, in assay [1], the “neutralization potency compared to parent IgG (in words)” value is given as “marked improvement in neutralization potency”. In the assay with SARS-CoV-2 RBD (RBD-Fc), the “EC50 of phage-displayed peptide” value is 0.04 A268 nm absorbance units and the “binding of peptide-phage” value is recorded as “bound”. For the same substance, in assay [2], the “improvement in 15033 neutralization efficiency (in words)” value is reported as “second best”. In assay [3], the “binding to omicron RBD (in words)” value was “equivalent binding efficiency”.
